Data taken from ChEMBL document CHEMBL1221220, “Transport and signaling via the amino acid binding site of the yeast Gap1 amino acid transceptor” (Nat Chem Biol, 2009).
Activity calls are given as the source filed them. The calls are words filed in the database; no cut-off is given here. Residues, ends and D or L forms follow the SMILES beside them.

T1: General amino-acid permease GAP1 (Saccharomyces cerevisiae) (UniProt P19145)
T1 sequence (whole entry): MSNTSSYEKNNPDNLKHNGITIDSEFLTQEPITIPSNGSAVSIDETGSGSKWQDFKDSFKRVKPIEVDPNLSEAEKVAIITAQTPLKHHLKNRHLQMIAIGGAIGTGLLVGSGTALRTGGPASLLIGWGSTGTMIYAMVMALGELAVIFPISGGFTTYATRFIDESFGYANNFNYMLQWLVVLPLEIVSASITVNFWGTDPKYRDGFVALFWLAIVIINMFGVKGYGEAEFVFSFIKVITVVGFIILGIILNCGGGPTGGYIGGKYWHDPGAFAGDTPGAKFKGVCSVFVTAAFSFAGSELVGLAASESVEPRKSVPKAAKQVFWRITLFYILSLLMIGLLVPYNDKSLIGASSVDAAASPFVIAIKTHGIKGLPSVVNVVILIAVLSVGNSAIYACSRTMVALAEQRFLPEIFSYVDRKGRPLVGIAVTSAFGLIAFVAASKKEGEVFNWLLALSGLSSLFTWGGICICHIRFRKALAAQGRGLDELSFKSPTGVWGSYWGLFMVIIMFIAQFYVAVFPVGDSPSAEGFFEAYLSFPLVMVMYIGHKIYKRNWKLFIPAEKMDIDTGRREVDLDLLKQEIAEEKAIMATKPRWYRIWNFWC

T2: General amino-acid permease GAP1 (Saccharomyces cerevisiae, UniProt P19145)
T2 sequence (P19145 whole entry): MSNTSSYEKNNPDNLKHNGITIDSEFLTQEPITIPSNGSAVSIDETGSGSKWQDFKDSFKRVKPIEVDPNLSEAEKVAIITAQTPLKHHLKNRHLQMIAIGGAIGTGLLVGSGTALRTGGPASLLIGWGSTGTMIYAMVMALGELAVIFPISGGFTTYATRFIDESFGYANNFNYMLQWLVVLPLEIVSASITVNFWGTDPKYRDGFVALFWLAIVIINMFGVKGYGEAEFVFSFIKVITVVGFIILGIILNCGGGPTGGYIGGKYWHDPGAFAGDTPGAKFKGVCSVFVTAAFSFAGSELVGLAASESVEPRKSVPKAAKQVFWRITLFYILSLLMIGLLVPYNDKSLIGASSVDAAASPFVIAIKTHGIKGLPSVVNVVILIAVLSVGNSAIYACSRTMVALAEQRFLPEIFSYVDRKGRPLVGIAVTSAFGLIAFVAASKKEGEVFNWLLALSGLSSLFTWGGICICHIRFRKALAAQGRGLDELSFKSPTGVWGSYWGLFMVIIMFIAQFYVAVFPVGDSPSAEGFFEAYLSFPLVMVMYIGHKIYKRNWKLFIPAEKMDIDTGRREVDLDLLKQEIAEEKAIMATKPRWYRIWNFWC


Assays:
[1] = target: T1, General amino-acid permease GAP1 (Saccharomyces cerevisiae); test: Competitive inhibition of nitrogen-starved wild type sigma1278b yeast Gap1-mediated amino acid uptake at 5 mM after 60 secs relative to L-citrulline
[2] = target: T2, General amino-acid permease GAP1; test: Competitive inhibition of nitrogen-starved wild type sigma1278b yeast Gap1 by Lineweaver-Burke plot analysis
[3] = target: T1, General amino-acid permease GAP1 (Saccharomyces cerevisiae); test: Induction of nitrogen-starved wild type sigma1278b yeast Gap1-mediated […] activation at 5 mM
[4] = target: T1, General amino-acid permease GAP1 (Saccharomyces cerevisiae); test: Induction of nitrogen-starved wild type sigma1278b yeast Gap1-mediated amino acid uptake at 5 mM after 90 mins
[5] = target: T1, General amino-acid permease GAP1 (Saccharomyces cerevisiae); test: Induction of nitrogen-starved wild type sigma1278b yeast Gap1-mediated […] activation at 5 mM in presence of 10 mM MTSEA treated before compound addition
[6] = target: T1, General amino-acid permease GAP1 (Saccharomyces cerevisiae); test: Inhibition of nitrogen-starved wild type sigma1278b yeast Gap1 assessed as reduction of L-citrulline-mediated trehalose activation at 5 to 10 mM
[7] = target: T1, General amino-acid permease GAP1 (Saccharomyces cerevisiae); test: Inhibition of L-Arg-L-Gly-L-Gly-induced nitrogen-starved wild type sigma1278b yeast Gap1
[8] = substrate: NC(=O)NCCC[C@H](N)C(=O)O; test: Activity at nitrogen-starved wild type sigma1278b Gap1; details: Saccharomyces cerevisiae

Row | Molecule | inhibition [1] [%] | Ki [2] [µM] | Activity [3] | Activity [4] | Activity [5] | inhibition [6] | inhibition [7] | Km [8] [µM]
1 | CC(C)C[C@H](N)C(=O)NCC(=O)O (H-Leu-Gly-OH) | > 30 | 190 | Active | inactive | inactive | – | – | –
2 | N[C@@H](CC(=O)N[C@@H](CCC(=O)O)c1ccccc1)C(=O)O | – | 105 | – | inactive | – | Active | inactive | –
3 | General amino-acid permease GAP1 (Saccharomyces cerevisiae), P19145 (protein) MSNTSSYEKNNPDNLKHNGITIDSEFLTQEPITIPSNGSAVSIDETGSGSKWQDFKDSFKRVKPIEVDPNLSEAEKVAIITAQTPLKHHLKNRHLQMIAIGGAIGTGLLVGSGTALRTGGPASLLIGWGSTGTMIYAMVMALGELAVIFPISGGFTTYATRFIDESFGYANNFNYMLQWLVVLPLEIVSASITVNFWGTDPKYRDGFVALFWLAIVIINMFGVKGYGEAEFVFSFIKVITVVGFIILGIILNCGGGPTGGYIGGKYWHDPGAFAGDTPGAKFKGVCSVFVTAAFSFAGSELVGLAASESVEPRKSVPKAAKQVFWRITLFYILSLLMIGLLVPYNDKSLIGASSVDAAASPFVIAIKTHGIKGLPSVVNVVILIAVLSVGNSAIYACSRTMVALAEQRFLPEIFSYVDRKGRPLVGIAVTSAFGLIAFVAASKKEGEVFNWLLALSGLSSLFTWGGICICHIRFRKALAAQGRGLDELSFKSPTGVWGSYWGLFMVIIMFIAQFYVAVFPVGDSPSAEGFFEAYLSFPLVMVMYIGHKIYKRNWKLFIPAEKMDIDTGRREVDLDLLKQEIAEEKAIMATKPRWYRIWNFWC | – | – | – | – | – | – | – | 37
